Measured values reported in patent publication US12178892B2, “Compounds for positron emission tomography” (Endocyte, Inc., priority 2013, dated 2024).

Columns and labels:
FR [1] = molecular target: T1, FR (Homo sapiens, UniProt P15328); experiment: Binding to FR in Cal51 xenograft tumor crude homogenate (concentration dependent binding, Scatchard analysis); details: Cal51 xenografts
T1 construct: to FR in KB and Cal51 tumor crude homogenate; from tissue; host or cells: KB and Cal51 tumour xenograft crude homogenates
Protocol: (§1) EXAMPLE. The specificity of the radionuclide containing conjugates binding to FR is evaluated against KB xenografts homogenates and Cal51 xenografts homogenates. […] Scatchard analyses were also performed. […] Without being bound by theory, it is believed herein that the moderate expression of FR in Cal51 xenografts accounts for the lower binding affinity. Binding affinities of ^18F-AIF-QC07017 (2) to FR in KB and Cal51 tumor crude homogenate.

FR [2] = molecular target: T1, FR; experiment: Binding to FR in KB xenograft tumor crude homogenate (concentration dependent binding, Scatchard analysis); details: for non-specific binding: KB homogenates; for binding sites and affinity (Scatchard analyses): all cell xenografts
Protocol: as §1

PC3 cells = experiment: In vitro uptake by PC3 cells; format: cell-based; details: PC3, PSMA (−) cell line
Protocol: (§2) EXAMPLE. In vitro evaluation of DUPA-EAOA-Phe-Phe-NOTA-^68Ga radiotracer (^68Ga-QC08009). ^67Ga has a longer half life than ^68Ga (about 3.3 days versus about 68 minutes, respectively). Thus, ^67Ga is used as a surrogate of ^68Ga for in vitro evaluation of Kd values and tissue imaging. It is to be understood that the in vitro evaluation of Kd values and tissue imaging observed for ^67Ga is predictive of ^68Ga. DUPA-EAOA-Phe-Phe-NOTA-^67Ga (67Ga-NOTA-LC-PSMA2) was prepared in nearly quantitative radiochemical yield. […] PC3 is a PSMA (−) cell line; LnCap is a PSMA (+) cell line; and PIP—PC3 is a transfect cell line with higher PSMA expression.

PIP—PC3 cells = experiment: In vitro uptake by PIP—PC3 cells; format: cell-based
Protocol: as §2

in vivo = experiment: in vivo; design: species or system mice; details: mouse, total radioactivity
Source text: (§3) EXAMPLE. In vivo PET imaging and BioD study of DUPA-EAOA-Phe-Phe-NOTA-^68Ga radiotracer (^68Ga-QC08009). […] Without being bound by theory, it is believed herein that the data support that the primary elimination pathway is in urine.

[3] = system: PSMA (+) LnCaP xenografts; experiment: in vivo; design: species or system mice; details: mouse
Source text: as §3

LnCaP cells = experiment: In vitro uptake by LnCaP cells; format: cell-based
Protocol: as §2

FR [4] = experiment: Binding in A549 xenograft homogenates; details: A549 xenografts
A549 tumor xenografts = experiment: Ex vivo (postmortem) biodistribution, A549 tumor xenografts; design: species or system nude mice; details: mouse
Source text: It is to be understood that the vertical axis has been expanded and that the kidney data is truncated. […] It is to be understood that the vertical axis has been expanded and that the kidney data is truncated. […] EXAMPLE. […] Without being bound by theory, it is believed herein that the highest accumulation of radioactivity in kidneys, along with the relative low uptake of radiotracer in the hepatobiliary system i.e. liver, bile and intestine/feces supports that renal elimination is the predominant excretion pathway.

KB tumor xenografts [5] = experiment: Ex vivo (postmortem) biodistribution, KB tumor xenografts; format: in vivo, nude mice; details: for FR specificity: in both KB xenograft tumor tissues and A549 xenograft tumor tissues; for radiotracer level in kidneys: mouse, in vivo
Source text: EXAMPLE. […] Without being bound by theory, it is believed herein that the highest accumulation of radioactivity in kidneys, along with the relative low uptake of radiotracer in the hepatobiliary system i.e. liver, bile and intestine/feces supports that renal elimination is the predominant excretion pathway.

KB tumor xenografts [6] = experiment: μPET imaging under baseline and competed conditions in nude mice bearing KB tumor xenografts; format: in vivo; details: competed group, 100 μg of folic acid 10 min before i.v. injection
Protocol: EXAMPLE. μPET imaging was performed on nude mice bearing KB tumor xenografts under baseline and competed conditions to evaluate the in vivo binding specificity of ^18F-AIF-QC07017 (2) to FR. Nude mice bearing KB tumor xenografts on their left shoulder were injected with 0.30-0.40 mCi (2). […] Without being bound by theory, it is believed herein that the high radioactivity found in kidneys was due to the uptake mediated by FR that is expressed in the proximal tubule cells in kidneys and the potential accumulation of radiotracer via renal excretion, which was further supported by the biodistribution studies described herein. With the exception of the liver, significant uptake in other organs was not observed.

[7] = system: PSMA(+) prostate cancer tissues; experiment: Binding to PSMA(+) prostate cancer tissues (tissue imaging); details: compared to ^67Ga-DKFZ-PSMA11
Protocol: as §2

PSMA = molecular target: T2, PSMA (Homo sapiens, UniProt Q04609); experiment: In vitro study in PSMA(−) and PSMA(+) cell lines, Kd; format: cell-based; details: PSMA(−) cell line (PC3) and PSMA(+) cell lines (LnCaP and PIP—PC3); ^67Ga as surrogate of ^68Ga
T2 construct: LnCap is a PSMA (+) cell line; and PIP—PC3 is a transfect cell line with higher PSMA expression; endogenous in cells; host or cells: LnCaP (endogenous) and PIP-PC3 (PSMA-transfected PC3); PC3 as the PSMA(-) control
Protocol: as §2

[8] = KB xenografts, tumor crude homogenate

T1 sequence (P15328 25-234): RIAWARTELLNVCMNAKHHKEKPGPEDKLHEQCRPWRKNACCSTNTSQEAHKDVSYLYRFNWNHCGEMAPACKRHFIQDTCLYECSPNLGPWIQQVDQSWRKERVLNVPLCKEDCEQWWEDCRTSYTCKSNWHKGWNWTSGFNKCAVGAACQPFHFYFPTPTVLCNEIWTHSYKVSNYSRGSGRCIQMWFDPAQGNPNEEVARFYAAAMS
T2 sequence (Q04609 whole entry): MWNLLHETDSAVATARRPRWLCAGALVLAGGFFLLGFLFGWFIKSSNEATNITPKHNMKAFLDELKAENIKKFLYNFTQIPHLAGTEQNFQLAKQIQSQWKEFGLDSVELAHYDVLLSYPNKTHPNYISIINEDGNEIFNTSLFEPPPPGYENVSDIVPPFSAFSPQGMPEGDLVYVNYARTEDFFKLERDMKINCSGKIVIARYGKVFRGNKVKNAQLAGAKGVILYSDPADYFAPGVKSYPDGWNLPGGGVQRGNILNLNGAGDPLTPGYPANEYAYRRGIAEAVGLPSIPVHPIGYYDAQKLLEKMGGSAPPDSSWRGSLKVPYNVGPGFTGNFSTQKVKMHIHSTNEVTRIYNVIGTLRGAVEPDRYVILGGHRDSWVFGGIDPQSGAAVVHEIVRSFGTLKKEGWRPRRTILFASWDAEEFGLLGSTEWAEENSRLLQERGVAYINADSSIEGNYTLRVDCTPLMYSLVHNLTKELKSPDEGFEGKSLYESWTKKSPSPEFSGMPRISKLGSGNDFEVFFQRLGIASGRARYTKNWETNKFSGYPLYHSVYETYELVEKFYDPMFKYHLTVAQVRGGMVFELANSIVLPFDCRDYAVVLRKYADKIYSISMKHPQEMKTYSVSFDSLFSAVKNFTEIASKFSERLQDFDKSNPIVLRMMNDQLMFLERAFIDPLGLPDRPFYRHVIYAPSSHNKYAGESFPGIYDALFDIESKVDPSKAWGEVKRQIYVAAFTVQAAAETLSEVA

Compound: Nc1nc2ncc(CNc3ccc(C(=O)N[C@@H](CCC(=O)NCCOCCOCCOCCOCCOCCOCCOCCOCCOCCOCCOCCOCCC(=O)NCCNC(=O)CN4CCN(CC(=O)O)CCN(CC(=O)O)CC4)C(=O)O)cc3)nc2c(=O)[nH]1 [^18F-AIF-QC07043]
- binding affinity (in words) (FR [1]): Moderate binding affinity
- Bmax (FR [1]; tumor crude homogenate): 13 nM
- non-specific binding (FR [2]): Significant non-specific binding was not observed
- binding affinity (in words) (FR [2]; KB xenografts): high specific binding affinity
- Bmax (FR [2]; [8]): 241 nM
- binding sites and affinity (Scatchard analyses) (FR [2]): bound one site with high affinity

Compound: O=C(O)CCC(NC(=O)NC(CCC(=O)NCCCCCCCC(=O)N[C@@H](Cc1ccccc1)C(=O)N[C@@H](Cc1ccccc1)C(=O)NCCNC(=O)CN1CCN(CC(=O)O)CCN(CC(=O)O)CC1)C(=O)O)C(=O)O (single isomer, unassigned) [^68Ga-QC08009, DUPA-EAOA-Phe-Phe-NOTA-^68Ga, metal not drawn]
- uptake by cells (PC3 cells): minimal
- uptake by cells when competed (PC3 cells; competing ligand): did not change when competed
- uptake by cells when competed (PIP—PC3 cells; PIP—PC3, competing ligand): blocked by competing ligand
- uptake by cells (PIP—PC3 cells; PIP—PC3, transfect cell line with higher PSMA expression): substantial, with PIP—PC3 cells showing the highest uptake
- tissue uptake dose (in vivo): 4.29 %ID
- accumulation in kidneys [3]: minor accumulation
- uptake by cells (LnCaP cells; PSMA (+) cell line): substantial
- uptake by cells when competed (LnCaP cells; competing ligand): blocked by competing ligand

Compound: Nc1nc2ncc(CNc3ccc(C(=O)N[C@@H](CCC(=O)NCCOCCOCCOCCOCCOCCOCCOCCOCCOCCOCCOCCOCCC(=O)NCCNC(=O)CN4CCN(CC(=O)O)CCN(CC(=O)O)CC4)C(=O)O)cc3)nc2c(=O)[nH]1 (Al18F complex, metal not drawn) [^18F-AIF-QC07043]
- binding affinity (in words) (FR [4]): lowest binding affinity
- accumulation in A549 xenograft tumor tissues (A549 tumor xenografts): comparable to the liver
- FR specificity (KB tumor xenografts [5]): comparable to etarfolatide (EC20)
- radiotracer level in kidneys (KB tumor xenografts [5]): highest signal

Compound: Nc1nc2ncc(CNc3ccc(C(=O)N[C@@H](CCC(=O)NCCOCCOCCNC(=O)CN4CCN(CC(=O)O)CCN(CC(=O)O)CC4)C(=O)O)cc3)nc2c(=O)[nH]1 [^18F-AIF-QC07017]
- binding affinity (in words) (FR [4]): lowest binding affinity
- tumor uptake under competition with folic acid (KB tumor xenografts [6]): completely inhibited
- binding affinity (in words) (FR [1]): Moderate binding affinity
- Bmax (FR [1]; tumor crude homogenate): 36 nM
- Kd (FR [1]; tumor crude homogenate): 1.1 nM
- accumulation in A549 xenograft tumor tissues (A549 tumor xenografts): comparable to the liver
- FR specificity (KB tumor xenografts [5]): comparable to etarfolatide (EC20)
- radiotracer level in kidneys (KB tumor xenografts [5]): highest signal
- non-specific binding (FR [2]): Significant non-specific binding was not observed
- binding affinity (in words) (FR [2]; KB xenografts): high specific binding affinity
- Bmax (FR [2]; [8]): 511 nM
- Kd (FR [2]; [8]): 0.7 nM
- binding sites and affinity (Scatchard analyses) (FR [2]): bound one site with high affinity
- binding by self competition (FR [2]; human tumor xenografts (KB and Cal51)): Displaceable and saturable binding

Compound: O=C(O)CCC(NC(=O)NC(CCC(=O)NCCCCCCCC(=O)N[C@@H](Cc1ccccc1)C(=O)N[C@@H](Cc1ccccc1)C(=O)NCCNC(=O)CN1CCN(CC(=O)O)CCN(CC(=O)O)CC1)C(=O)O)C(=O)O (single isomer, unassigned) [^67Ga-NOTA-LC-PSMA2, DUPA-EAOA-Phe-Phe-NOTA-^67Ga, metal not drawn]
- binding to PSMA(+) prostate cancer tissues [7]: superior binding
- Kd (PSMA): 8.45 ± 2.16 nM
